These results are taken from ChEMBL document CHEMBL5331104, “Discovery of BRD4-HDAC Dual Inhibitors with Improved Fungal Selectivity and Potent Synergistic Antifungal Activity against Fluconazole-Resistant Candida albicans” (J Med Chem, 2023).

For one data set, the target named is Histone deacetylase 1 (Homo sapiens, UniProt Q13547). As to the kind of experiment: Inhibition of full-length recombinant human HDAC1 (1 to 482 residues) expressed in baculovirus infected insect cells using […] as substrate incubated for 30 mins by fluorescence based analysis. Details: species or system Insect cell.
Another data set concerns HL-60. As to the kind of experiment: Antiproliferative activity against human HL-60 cells incubated for 48 hrs by CCK8 assay. The format is functional, cell-based. To be noted: HL-60, 48 h. For orientation: Formazan colour is commonly taken as a measure of viable cells.
For a further data set, the target named is Histone deacetylase. As to the kind of experiment: Inhibition of total HDAC in human HUVEC cells using Boc-Lys(Ac)-AMC as substrate preincubated for 12 hrs followed by substrate addition measured after 6 hrs by microtiter plate reader analysis. It counts as cell-based.
In a further data set the test system is K562. Description: Antiproliferative activity against human K562 cells incubated for 48 hrs by CCK8 assay. The format is functional, cell-based. The following applies: K562, 48 h.
For a further data set, the system named is HEL. As to the kind of experiment: Antiproliferative activity against human HEL cells incubated for 48 hrs by CCK8 assay. It counts as functional, cell-based.
For data set [1], the system named is Candida albicans. As to the kind of experiment: Antifungal activity against Candida albicans SC5314 assessed as fungal growth inhibition incubated for 24 hrs by broth dilution method. The format is functional. (In general: In broth dilution the organism is exposed to a series of concentrations in liquid medium.)
In a further data set the test system is Cryptococcus neoformans. As to the kind of experiment: Antifungal activity against Cryptococcus neoformans H99 assessed as fungal growth inhibition incubated for 24 hrs by broth dilution method. The format is functional.
The test system of data set [2] is Candida albicans. As to the kind of experiment: microbe, parasite or virus in culture. The format is functional. The following applies: 0304103.
Description: Antifungal activity against Candida albicans 0304103 assessed as microbial growth inhibition
Data set [3] has as its system Candida albicans. As to the kind of experiment: microbe, parasite or virus in culture. It counts as functional. To be noted: 0304103, time 24 hrs.
Description: Synergetic antifungal activity against Candida albicans 0304103 assessed as microbial growth inhibition incubated for 24 hrs in the presence of fluconazole by checkerboard microdilution method
In data set [4] the test system is Candida albicans. It counts as functional, 0304103. To be noted: time 24 hrs.
Description: Synergetic antifungal activity against Candida albicans 0304103 assessed as fractional inhibitory concentration index incubated for 24 hrs in the presence of fluconazole by checkerboard microdilution method
Another data set can be described thus: in vitro. The following applies: human, HUVEC cells.

Values after ≈ are worked out from the molar mass of the structure shown.

Histone deacetylase 1, sequence (Q13547 whole entry, the tested form may be a part): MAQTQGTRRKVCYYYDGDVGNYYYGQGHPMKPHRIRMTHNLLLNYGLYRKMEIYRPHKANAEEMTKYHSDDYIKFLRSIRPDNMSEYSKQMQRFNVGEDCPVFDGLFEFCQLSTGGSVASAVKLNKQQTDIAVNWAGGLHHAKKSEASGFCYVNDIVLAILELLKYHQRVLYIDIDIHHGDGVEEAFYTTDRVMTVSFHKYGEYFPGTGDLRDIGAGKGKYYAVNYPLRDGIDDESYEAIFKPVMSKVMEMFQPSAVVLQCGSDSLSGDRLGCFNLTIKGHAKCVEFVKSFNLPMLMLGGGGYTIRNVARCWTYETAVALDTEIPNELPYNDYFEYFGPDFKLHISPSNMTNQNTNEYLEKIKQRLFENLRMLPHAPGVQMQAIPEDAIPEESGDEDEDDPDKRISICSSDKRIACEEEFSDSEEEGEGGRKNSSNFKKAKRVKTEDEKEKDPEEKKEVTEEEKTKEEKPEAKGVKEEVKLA
Description for in vitro: Cytotoxicity against HUVECs assessed as inhibition of cell growth incubated for 48 hrs by CCK8 assay

Take `Cc1nnc2n1-c1sc3c(c1C(c1ccc(Cl)cc1)=N[C@H]2CC(=O)Nc1ccc(/C=C/C(=O)NO)cc1)CCCC3`: the IC50 (in general, the concentration that gives 50% inhibition) on Histone deacetylase 1 is 790 nM; in the data set with HL-60, 5100 nM; on Histone deacetylase, 150 nM; in the data set with K562, 2.4 µM; in the data set with HEL it was greater than 10 µM. In addition, the MIC80 is greater than 64 µg/mL with Candida albicans [1], 4 µg/mL (≈ 6.81 µM) in the data set on Cryptococcus neoformans, greater than 64 µg/mL in the data set on Candida albicans [2] and 4 µg/mL (≈ 6.81 µM) with Candida albicans [3]. In addition, in the data set with Candida albicans [4], the “fractional inhibitory concentration index (FICI)” value stood at 0.066. This compound also returned an IC50 at 48 h in “in vitro” of 4.7 µM.
With `Cc1ccc(C2=N[C@@H](CC(=O)NCc3ccc(C(=O)NO)cc3)c3nnc(C)n3-c3ccccc32)cc1`, the IC50 at Histone deacetylase 1 is 890 nM; in the data set with HL-60, greater than 10000 nM; against Histone deacetylase it was 5800 nM; in the data set with K562, greater than 10 µM; with HEL it was 7 µM. Moreover, the MIC80 in the data set on Candida albicans [1] was greater than 64 µg/mL; in the data set with Cryptococcus neoformans it was 32 µg/mL (≈ 64.7 µM); against Candida albicans [2] it was greater than 64 µg/mL; against Candida albicans [3], 8 µg/mL (≈ 16.2 µM). Besides, in the data set with Candida albicans [4], the “fractional inhibitory concentration index (FICI)” value was 0.14. The compound further had an IC50 at 48 h in “in vitro” of 20 µM.
With `Cc1nnc2n1-c1ccccc1C(c1ccc(Cl)cc1)=N[C@H]2CC(=O)Nc1ccc(CC(=O)NO)cc1`, the IC50 is 2400 nM on Histone deacetylase 1; 1100 nM in the data set with HL-60; 2800 nM on Histone deacetylase; greater than 10 µM with K562; greater than 10 µM with HEL. Further, the MIC80 in the data set with Candida albicans [1] was greater than 64 µg/mL; with Cryptococcus neoformans it was 32 µg/mL (≈ 62.1 µM); against Candida albicans [2], greater than 64 µg/mL; with Candida albicans [3], 32 µg/mL (≈ 62.1 µM). The “fractional inhibitory concentration index (FICI)” value in the data set on Candida albicans [4] worked out at 0.75. Moreover, in “in vitro”, the IC50 at 48 h is 19 µM.
On to `Cc1nnc2n1-c1sc3c(c1C(c1ccc(Cl)cc1)=N[C@H]2CC(=O)Nc1ccc(CC(=O)NO)cc1)CCCC3`, for which the IC50 is 1400 nM at Histone deacetylase 1; 1100 nM with HL-60; 2200 nM at Histone deacetylase; greater than 10 µM in the data set with K562; 4 µM in the data set with HEL. Further, the MIC80 in the data set with Candida albicans [1] was greater than 64 µg/mL; in the data set on Cryptococcus neoformans, 16 µg/mL (≈ 27.8 µM); with Candida albicans [2], greater than 64 µg/mL; in the data set on Candida albicans [3], 4 µg/mL (≈ 6.96 µM). Further, the “fractional inhibitory concentration index (FICI)” value with Candida albicans [4] was found to be 0.07. In the data set “in vitro”, this compound returned an IC50 at 48 h of 5.9 µM.
As to `Cc1nnc2n1-c1ccccc1C(c1ccccc1)=N[C@H]2CC(=O)Nc1ccc(C(=O)NO)cc1`, the half-inhibitory concentration (IC50) at Histone deacetylase 1 was 62 nM; in the data set with HL-60, 1700 nM; against Histone deacetylase, 65 nM; in the data set with K562, 3.3 µM; with HEL it was greater than 10 µM. For the same compound, the MIC80 is greater than 64 µg/mL with Candida albicans [1], 16 µg/mL (≈ 34.3 µM) with Cryptococcus neoformans, greater than 64 µg/mL in the data set with Candida albicans [2] and 4 µg/mL (≈ 8.57 µM) in the data set with Candida albicans [3]. The “fractional inhibitory concentration index (FICI)” value in the data set with Candida albicans [4] is 0.094. Moreover, the IC50 at 48 h in “in vitro” came to 25 µM.
With `Cc1nnc2n1-c1ccccc1C(c1ccccc1)=N[C@H]2CC(=O)Nc1ccc(/C=C/C(=O)NO)cc1`, the IC50 at Histone deacetylase 1 is 100 nM; in the data set on HL-60, 7000 nM; against Histone deacetylase, 16 nM; with K562, 1.9 µM; in the data set on HEL, greater than 10 µM. The MIC80 in the data set on Candida albicans [1] was greater than 64 µg/mL; in the data set on Cryptococcus neoformans, 8 µg/mL (≈ 16.2 µM); in the data set with Candida albicans [2], greater than 64 µg/mL; in the data set with Candida albicans [3] it was 4 µg/mL (≈ 8.12 µM). Further, in the data set on Candida albicans [4], the “fractional inhibitory concentration index (FICI)” value was found to be 0.094. This compound also gave an IC50 at 48 h in “in vitro” of 14 µM.
